{"source": "patent US20220243177A1", "about": "“METHODS OF CULTURING QUIESCENT HEMATOPOIETIC STEM CELLS AND TREATMENT METHODS” (priority 2019, published 2022)", "format_in_all_cases": "cell-based, mouse", "key": {"[1]": {"tested_on": "MMP-low and MMP-high HSCs", "experiment": "Autophagic vacuole formation / lysosomal localization of mitochondria (confocal immunofluorescence)", "source_text": "Immunofluorescence Staining, Imaging, and Analysis—Super Resolution Confocal Microscopy: Images were acquired with a Zeiss LSM 880 confocal microscope equipped with Airyscan Super Resolution Imaging module, using a 100×/1.46 Alpha Plan Apochromat objective lens (Zeiss MicroImaging, Jena, Germany) with “optimal” (Nyquist) XY scaling. Z stacks through the entire cell were acquired at an […] (at least 20 optical sections) using a pixel dwell time of >50 microseconds and field dimensions of […] (20 MMP-low and 20 MMP-high HSCs analyzed). This was followed by Airyscan image processing (set at auto but rarely over 6.2) and analyses using ZEN image acquisition and processing software (ZEN blue/black). Maximum intensity projections shown in the figures were also obtained using ZEN Blue software.\nLysosomal Localization of Mitochondria. FACS-sorted MMP-low and MMP-high HSCs (LSKCD150^+CD48^-MMP-low/-high) were treated with DMSO control or leupeptin […] for 4 hours. HSCs were then fixed and imaged for TOM20 (mitochondria) and LAMP1 (lysosomes).\nAutophagic Vacuole Formation. Accumulation of autophagy substrates, Translocase of outer membrane 20 (TOM20) or Map11c3a (LC3), was determined in the presence of amino acid-containing (DMSO) or -starved amino acid-depleted media, v-ATPase inhibitor concanamycin A (ConA 40nM), inhibitor of autophagosome-autolysosome fusion chloroquine (CQ, […]), or protease inhibitor, leupeptin […] following guidelines outlined for study of autophagy (Klionsky et al., “Guidelines for the Use and Interpretation of Assays for Monitoring Autophagy (3rd Edition),” Autophagy 12(1): 1-222 (2016) and Martinez-Lopez et al., “Autophagy Proteins Regulate ERK Phosphorylation,” Nat. Commun. 4: 2799 (2013), which are hereby incorporated by reference in their entirety). In brief, FACS-sorted\nMMP-low and MMP- high HSCs were cultured in the presence or absence of indicated inhibitors for 4, 5, or 18 hours following which cells were subjected to immunofluorescence assays for TOM20, LC3 and/or LAMP1 or LAMP2 as described above. Analyses were performed to quantify the turnover of indicated protein in lysosomes by evaluating the accumulation of TOM20 or LC3 in the presence versus absence of an inhibitor. TOM20 and LC3 flux were determined by subtracting the colocalized value of inhibitor-untreated TOM20 or LC3 with LAMP1 from corresponding inhibitor-treated values. Images were captured using a Zeiss LSM880 Airyscan confocal microscope using 100 X objectives (Leica), and percentage colocalization was calculated using the JACoP plugin (NIH ImageJ).\nMitochondrial and Lysosome Morphology: Freshly isolated HSCs were analyzed for mitochondrial morphology. Each individual HSC (150 total) was analyzed by using Arivis Vision 4D software and classified as either fragmented or not fragmented in accordance with number of surfaces. Cells that fulfilled the definition of ‘fragmented’ contained 3 or more individual mitochondrial surfaces (Kask et al., “Fluorescence-intensity Distribution Analysis and Its Application in Biomolecular Detection Technology,” Proc. Natl. Acad. Sci. USA 96(24): 13756-13761 (1999), which is hereby incorporated by reference in its entirety). Lysosomes' fluorescence intensity or area profiling was calculated using ImageJ software enabling the detection of fluorescently labeled […] boundaries (lysosomal marker LAMP1), as reflected by sharp increases or decreases in fluorescence intensity. Channels displaying fluorescence for either mitochondria or lysosomes were thresholded with the IsoData option to delimit the boundaries of mitochondrial networks and lysosome morphology. The resulting outlines were measured using the analyzed particles option to determine the size of distinct particles representing mitochondrial networks or lysosomes. More than 50 cells/condition/experiment were analyzed for lysosomes. […]"}, "[2]": {"tested_on": "MMP-low and MMP-high HSCs", "experiment": "Lysosome acidity (LysoTracker green, LysoSensor blue)", "conditions": "ConA 40 nM, 5 hours", "method": "To test lysosome acidity in MMP-low and MMP-high HSCs, FACS-sorted MMP-low and MMP-high HSCs were incubated in Stem-Span media with SCF (10 ng/mL) and TPO (20 ng/mL) or amino acid free medium (starvation) containing ConA (40 nM) or DMSO control for 5 hr; and then cells were incubated with […] Lysotracker green (LTR) or 1mM Lysosensor Blue diluted in above medium for 30 min (37° C., 5% CO2). Cells were rapidly washed with warm PBS (37° C.) three times, mounted and images were captured using a Zeiss LSM880 confocal microscope using a 40× objective (N.A. 1.4)."}, "[3]": {"tested_on": "MMP-low and MMP-high HSCs of CAG-RFP-EGFP-LC3 bone marrow", "experiment": "CAG-RFP-EGFP-LC3 assay", "conditions": "ConA 40 nM, 3 hours; superior to starving condition", "method": "CAG-RFP-EGFP-LC3 Assay. Total BM cells from CAG-RFP-EGFP-LC3 mice were cultured in StemSpan with SCF (10 ng/mL) and TPO (20 ng/mL) at 8×10^6 cells/ mL. Cells were either incubated with ConA (40 nM), chloroquine (CQ, […]), leupeptin ([…]) or DMSO control, or -starved amino acid-depleted RPMI 1640 media for 3 hours to induce autolysosome accumulation. Both GFP and mRFP are expressed in a single transgene, both green and red fluorescence is emitted from the same LC3 molecule, with 1:1 stoichiometry, thus allowing a more-accurate quantification of autophagosomes and autolysosomes measured by flow cytometry 3 hours post-treatment. Given the fluorescent incompatibility, only frequency of HSC with autophagosome (RFP^+GFP^+-LC3) or autolysosome formation (RFP^+-LC3) normalized to conditions with MMP-low against MMP-high HSCs was determined."}}, "data": [{"compound": "C/C=C/[C@H]1O[C@@](O)([C@@H](C)[C@H](O)[C@H](C)[C@H]2OC(=O)/C(OC)=C/C(C)=C/[C@@H](C)[C@@H](O)[C@@H](CC)[C@@H](O)[C@H](C)C/C(C)=C/C=C/[C@@H]2OC)C[C@@H](O[C@H]2C[C@@H](O)[C@H](OC(N)=O)[C@@H](C)O2)[C@@H]1C", "note": "[ConA, concanamycin A]", "values": [{"measurement": "fold increase of enlarged lysosomes, MMP-high HSCs", "setting": "[1]; 5-hour ConA treatment, 40 nM", "result": 35}, {"measurement": "fold increase of enlarged lysosomes, MMP-low HSCs", "setting": "[1]; 5-hour ConA treatment, 40 nM", "result": 32}, {"measurement": "increase of lysosomal localization of TOM20, MMP-high HSCs", "setting": "[1]; ConA 40 nM", "result": "~3", "unit": "fold"}, {"measurement": "increase of lysosomal localization of TOM20, MMP-low HSCs", "setting": "[1]; ConA 40 nM", "result": "~1.3", "unit": "fold"}, {"measurement": "mitochondrial fragmentation", "setting": "[1]; ConA 40 nM", "result": "enhanced mitochondrial fragmentation"}, {"measurement": "increase in LC3-positive puncta, MMP-high HSCs", "setting": "[1]; ConA 40 nM, 18 hours", "result": 3, "unit": "fold"}, {"measurement": "increase in LC3-positive puncta, MMP-low HSCs", "setting": "[1]; ConA 40 nM, 18 hours", "result": 1.33, "unit": "fold"}, {"measurement": "autolysosomal degradation (colocalization of LAMP1 with LC3)", "setting": "[1]; ConA 40 nM, leupeptin 100 mM, chloroquine 40 mM, 18 hours, MMP-low and MMP-high HSCs", "result": "dramatically prevented autolysosomal degradation"}, {"measurement": "lysosomal acidity", "setting": "[2]", "result": "reduced"}, {"measurement": "frequency of autolysosome (RFP+)-accumulated MMP-high and MMP-low HSCs", "setting": "[3]", "result": "specifically promoted the frequency"}]}]}
